Reference: PubChem BioAssay (NCI)
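Protocol summary: plate cells (96-well), add compound at 5 concentrations, incubate 48 h, interpolate endpoints linearly. At the TGI there is no net growth.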

Tests used:
Assay in all cases: NCI-60 cell line screen, 48 h
OVCAR-8 ovarian = system: OVCAR-8 ovarian
T-47D breast = system: T-47D breast
HOP-62 NSCLC = system: HOP-62 NSCLC
MDA-MB-231 breast = system: MDA-MB-231 breast
SF-295 CNS = system: SF-295 CNS
LOX IMVI melanoma = system: LOX IMVI melanoma
M14 melanoma = system: M14 melanoma
HT29 colon = system: HT29 colon
SF-268 CNS = system: SF-268 CNS
HCT-116 colon = system: HCT-116 colon
KM12 colon = system: KM12 colon
SNB-75 CNS = system: SNB-75 CNS
NCI/ADR-RES ovarian = system: NCI/ADR-RES ovarian
SN12C renal = system: SN12C renal
SW-620 colon = system: SW-620 colon
CAKI-1 renal = system: CAKI-1 renal
SK-MEL-2 melanoma = system: SK-MEL-2 melanoma
HCT-15 colon = system: HCT-15 colon
DU-145 prostate = system: DU-145 prostate
UO-31 renal = system: UO-31 renal
OVCAR-5 ovarian = system: OVCAR-5 ovarian
K-562 leukemia = system: K-562 leukemia
UACC-62 melanoma = system: UACC-62 melanoma
RXF 393 renal = system: RXF 393 renal
SNB-19 CNS = system: SNB-19 CNS
BT-549 breast = system: BT-549 breast
SK-MEL-5 melanoma = system: SK-MEL-5 melanoma
OVCAR-3 ovarian = system: OVCAR-3 ovarian
MCF7 breast = system: MCF7 breast
IGROV1 ovarian = system: IGROV1 ovarian
OVCAR-4 ovarian = system: OVCAR-4 ovarian
MOLT-4 leukemia = system: MOLT-4 leukemia
NCI-H460 lung = system: NCI-H460 lung
SK-OV-3 ovarian = system: SK-OV-3 ovarian
SR leukemia = system: SR leukemia
U251 CNS = system: U251 CNS
A498 renal = system: A498 renal
NCI-H522 lung = system: NCI-H522 lung
SK-MEL-28 melanoma = system: SK-MEL-28 melanoma
ACHN renal = system: ACHN renal
MDA-N = system: MDA-N
TK-10 renal = system: TK-10 renal
PC-3 prostate = system: PC-3 prostate
UACC-257 melanoma = system: UACC-257 melanoma
MDA-MB-435 = system: MDA-MB-435
HCC-2998 colon = system: HCC-2998 colon
COLO 205 colon = system: COLO 205 colon
MALME-3M melanoma = system: MALME-3M melanoma
HS 578T breast = system: HS 578T breast
CCRF-CEM leukemia = system: CCRF-CEM leukemia
RPMI-8226 leukemia = system: RPMI-8226 leukemia
A549 NSCLC = system: A549 NSCLC
EKVX NSCLC = system: EKVX NSCLC
786-0 renal = system: 786-0 renal
NCI-H226 lung = system: NCI-H226 lung

Measured: TGI

Cc1sc2c(c1C)C(=O)c1cccn1-2
> 100 µM: all assays above
